In US20050026950A1, “Methods of therapeutic treatment using retinoids to achieve consistent bioavailability” (Allergan, Inc., priority 2003, published 2005):

What was measured:
Assay type in all cases: in vivo, human
[1] = Phase 3 studies of orally administered tazarotene for psoriasis, adverse event monitoring; conditions: Taz 4.5 mg
Method: A series of Phase 3 studies are conducted on orally administered tazarotene for the treatment of psoriasis. Adverse events (side effects) are monitored. In addition, published data for acitretin's side effects are also considered.

[2] = Studies of orally administered tazarotene for acne, adverse event monitoring; conditions: combined data from Studies 1 and 2 (N = 223)
Method: Studies are conducted on orally administered tazarotene for the treatment of acne. Adverse events (side effects) are monitored.

[3] = PK and PD interaction studies of oral tazarotene and oral contraceptives in healthy volunteers; conditions: orally, up to 6 mg once daily
Method: It is the objective of this study to determine if there are pharmacokinetic (PK) and pharmacodynamic (PD) interactions between tazarotene and commonly prescribed oral contraceptives (OCs) when coadministered together.
Three separate clinical studies are conducted to evaluate the PK and PD interactions of oral tazarotene and OCs in healthy volunteers. Two studies evaluate daily doses of norethindrone (NE)/ethinyl estradiol (EE) with daily doses of tazarotene 1.1 mg (N=27) and 6 mg (N=29). The third study assesses the daily doses of norgestimate (NGM)/EE with daily doses of tazarotene 6 mg (N=26). OCs are administered for three consecutive menstrual cycles. Daily doses of tazarotene are started during the 2nd cycle and continued through the end of the studies. PK parameters for EE, NE, and NGM (AUC0-24 and Cmax) are determined before tazarotene dosing and after tazarotene dosing on day 6 of the 2nd and 3rd cycles. Serum concentrations of luteinizing hormone (LH) and follicle-stimulating hormone (FSH)-markers of contraceptive efficacy are also evaluated before tazarotene dosing and after tazarotene dosing on days 2, 4, and 6 of the 2nd and 3rd cycles. Serum progesterone levels are assessed on days 18 and 20 of the 2nd and 3rd cycles. […]

[4] = Study 3, treated 3 months (N = 220)
[5] = Study 3, treated 6 months (N = 92)
[6] = combined data from Studies 1 and 2 (N = 348)

CCOC(=O)c1ccc(C#Cc2ccc3c(c2)C(C)(C)CCS3)nc1 [tazarotene]
Alopecia [1, 4]: 1 (0.5) number (%) of patients
Arthralgia [1, 4]: 28 (12.7) number (%) of patients
Atrophy of skin [1, 4]: 0 (0.0) number (%) of patients
Back pain [1, 4]: 7 (3.2) number (%) of patients
Cheilitis [1, 4]: 149 (67.7) number (%) of patients
Dry Skin [1, 4]: 47 (21.4) number (%) of patients
Dry mouth/Oral dryness [1, 4]: 11 (5.0) number (%) of patients
Epistaxis [1, 4]: 1 (0.5) number (%) of patients
Erythematous rash/Erythema [1, 4]: 0 (0.0) number (%) of patients
Hyperesthesia [1, 4]: 0 (0.0) number (%) of patients
Nail Disorder [1, 4]: 1 (0.5) number (%) of patients
Paresthesia [1, 4]: 3 (1.4) number (%) of patients
Paronychia/Nail disorder [1, 4]: 1 (0.5) number (%) of patients
Pruritus [1, 4]: 11 (5.0) number (%) of patients
Rhinitis [1, 4]: 0 (0.0) number (%) of patients
Rigors/Chills [1, 4]: 1 (0.5) number (%) of patients
Skin peeling/Desquamation [1, 4]: 3 (1.4) number (%) of patients
Sticky skin/Skin disorder [1, 4]: 0 (0.0) number (%) of patients
Xerophthalmia/Eye disorder [1, 4]: 3 (1.4) number (%) of patients
Alopecia [1, 5]: 5 (5.4) number (%) of patients
Arthralgia [1, 5]: 30 (32.6) number (%) of patients
Atrophy of skin [1, 5]: 0 (0.0) number (%) of patients
Back pain [1, 5]: 10 (10.9) number (%) of patients
Cheilitis [1, 5]: 65 (70.7) number (%) of patients
Dry Skin [1, 5]: 24 (26.1) number (%) of patients
Dry mouth/Oral dryness [1, 5]: 2 (2.2) number (%) of patients
Epistaxis [1, 5]: 0 (0.0) number (%) of patients
Erythematous rash/Erythema [1, 5]: 0 (0.0) number (%) of patients
Hyperesthesia [1, 5]: 0 (0.0) number (%) of patients
Nail Disorder [1, 5]: 1 (1.1) number (%) of patients
Paresthesia [1, 5]: 1 (1.1) number (%) of patients
Paronychia/Nail disorder [1, 5]: 1 (1.1) number (%) of patients
Pruritus [1, 5]: 3 (3.3) number (%) of patients
Rhinitis [1, 5]: 0 (0.0) number (%) of patients
Rigors/Chills [1, 5]: 1 (1.1) number (%) of patients
Skin peeling/Desquamation [1, 5]: 1 (1.1) number (%) of patients
Sticky skin/Skin disorder [1, 5]: 0 (0.0) number (%) of patients
Xerophthalmia/Eye disorder [1, 5]: 1 (1.1) number (%) of patients
Alopecia [1, 6]: 1 (0.3) number (%) of patients
Arthralgia [1, 6]: 60 (17.2) number (%) of patients
Atrophy of skin [1, 6]: 0 (0.0) number (%) of patients
Back pain [1, 6]: 16 (4.6) number (%) of patients
Cheilitis [1, 6]: 228 (65.5) number (%) of patients
Dry Skin [1, 6]: 82 (23.6) number (%) of patients
Dry mouth/Oral dryness [1, 6]: 11 (3.2) number (%) of patients
Epistaxis [1, 6]: 2 (0.6) number (%) of patients
Erythematous rash/Erythema [1, 6]: 2 (0.6) number (%) of patients
Hyperesthesia [1, 6]: 0 (0.0) number (%) of patients
Nail Disorder [1, 6]: 2 (0.6) number (%) of patients
Paresthesia [1, 6]: 7 (2.0) number (%) of patients
Paronychia/Nail disorder [1, 6]: 2 (0.6) number (%) of patients
Pruritus [1, 6]: 21 (6.0) number (%) of patients
Rhinitis [1, 6]: 8 (2.3) number (%) of patients
Rigors/Chills [1, 6]: 9 (2.6) number (%) of patients
Skin peeling/Desquamation [1, 6]: 3 (0.9) number (%) of patients
Sticky skin/Skin disorder [1, 6]: 1 (0.3) number (%) of patients
Xerophthalmia/Eye disorder [1, 6]: 8 (2.3) number (%) of patients
Cheilitis [2]: 134 (60.1) number (%) of patients
Conjunctivitis [2]: 0 (0.0) number (%) of patients
Desquamation central face/Desquamation [2]: 1 (0.4) number (%) of patients
Dry Skin [2]: 79 (35.4) number (%) of patients
Dry nose [2]: 7 (3.1) number (%) of patients
Epistaxis [2]: 6 (2.7) number (%) of patients
Fingertip peeling/Desquamation [2]: 1 (0.4) number (%) of patients
Headache [2]: 26 (11.7) number (%) of patients
Irritation of eyes [2]: 0 (0.0) number (%) of patients
Joint pain/Arthralgia [2]: 18 (8.1) number (%) of patients
Peeling/Desquamation [2]: 1 (0.4) number (%) of patients
Pruritus [2]: 10 (4.5) number (%) of patients
Rash-dermatitis/Rash [2]: 7 (3.1) number (%) of patients
Red Scaly face/Desquamation [2]: 1 (0.4) number (%) of patients
Skin fragility/Skin disorder [2]: 1 (0.4) number (%) of patients
effect on the PK or efficacy of NE/EE and NGM/EE oral contraceptives [3]: does not affect
